Reference: patent US20250281451A1, “COMPOSITIONS AND METHODS FOR MODULATING SLEEP AND USES THEREOF” (Brightseed, Inc., priority 2022, published 2025)
Entries after “also recorded” stand apart in the source; their conditions may differ.

How the values were obtained:
[1] = system: cells; assay: cell viability, XTT assay; assay type: cell-based; conditions: at the IC50 μM concentration of the compound
Procedure: (§1) The plants described herein were tested to determine the concentration, in μM, to achieve the relative IC50 of OR2 receptor, the absolute percent agonism achieved at the μM concentration of the relative OR2 IC50, the percentage receptor activity at the concentration, in μM, needed to achieve IC50 in OR2, the percentage cell viability, measured by XTT assay, at the IC50 μM concentration, the concentration of the fraction, in fold dilution, needed to achieve IC50 of OR2, and the percentage receptor activity at the concentration of the fraction, in fold dilution, needed to achieve IC50 of OR2.

[2] = target: T1, Orx2 (Homo sapiens, UniProt O43614); assay: Orx2 antagonist screening, chemiluminescent cell assay with Orexin B EC80; assay type: cell-based; conditions: for % Agonism Orx2 at Relative IC50: absolute percent agonism at the μM concentration of the relative OR2 IC50; for IC50: antagonist mode against Orexin B EC80, read-out: Relative IC50 of Orx2; for IC50 Dilution of Orx2 (fold dilution): concentration of the fraction of the plant source, in fold dilution, needed to achieve IC50 of OR2
T1 construct: DiscoverX
T1 sequence (O43614 1-444): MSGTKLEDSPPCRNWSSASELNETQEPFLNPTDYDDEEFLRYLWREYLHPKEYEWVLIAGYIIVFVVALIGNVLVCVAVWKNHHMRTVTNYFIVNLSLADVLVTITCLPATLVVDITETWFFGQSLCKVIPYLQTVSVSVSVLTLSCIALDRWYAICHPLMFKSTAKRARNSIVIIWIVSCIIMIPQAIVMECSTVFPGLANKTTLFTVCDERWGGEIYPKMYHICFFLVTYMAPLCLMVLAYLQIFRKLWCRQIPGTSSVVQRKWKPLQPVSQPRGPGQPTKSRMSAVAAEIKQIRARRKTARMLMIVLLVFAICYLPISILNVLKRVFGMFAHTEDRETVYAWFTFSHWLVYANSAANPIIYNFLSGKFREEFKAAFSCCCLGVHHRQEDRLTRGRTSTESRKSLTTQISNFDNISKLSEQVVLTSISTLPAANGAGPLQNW
Procedure: For this example, the following protocol was used: 1.) seed cells in 20 μL Cell Plating Reagent; 2.) incubate cells overnight at 37° C. and 5% CO2; 3.) treat cells with 2.5 μL 10× antagonist prepared in Compound Dilution Buffer (For OR2 screening, 2.5 μL of 1:100 natural product sample in DiscoverX cell plating reagent. Control antagonist, Seltorexant, 10× stock was prepared at 1500 nM); 4.) incubate for 30 minutes at 37° C. and 5% CO2; 5.) treat cells with 2.5 μL 10× agonist prepared in Compound Dilution Buffer (For OR2 screening, 2.5 μL of 10× Orexin B EC80, 252.7 nM); 6.) incubate for 90 minutes at 37° C. and 5% CO2; 7.) add 12.5 μL Working Detection Solution; 8.) incubate for 1 hour at room temperature in the dark; and 9.) read chemiluminescent signal.
as §1

[3] = target: T2, Orx1 (Homo sapiens, UniProt O43613); assay: % agonism on Orx1 at the OR2 IC50 concentration; assay type: cell-based; conditions: at the μM concentration needed to achieve IC50 in OR2
T2 sequence (O43613 1-425): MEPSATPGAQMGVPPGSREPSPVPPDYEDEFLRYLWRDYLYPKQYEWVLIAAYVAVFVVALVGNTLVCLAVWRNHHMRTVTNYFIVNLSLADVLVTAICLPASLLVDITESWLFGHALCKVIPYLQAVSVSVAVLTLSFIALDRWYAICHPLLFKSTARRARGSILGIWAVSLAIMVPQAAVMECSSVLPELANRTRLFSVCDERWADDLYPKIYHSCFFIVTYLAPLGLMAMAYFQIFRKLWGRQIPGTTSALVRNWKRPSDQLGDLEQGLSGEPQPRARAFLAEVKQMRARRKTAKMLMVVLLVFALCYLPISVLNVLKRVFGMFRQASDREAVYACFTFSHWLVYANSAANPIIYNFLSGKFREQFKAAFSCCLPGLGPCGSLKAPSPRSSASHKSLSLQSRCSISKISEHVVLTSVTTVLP
Procedure: For this example, the following protocol was used: 1.) seed cells in 20 μL Cell Plating Reagent; 2.) incubate cells overnight at 37° C. and 5% CO2; 3.) treat cells with 2.5 μL 10× antagonist prepared in Compound Dilution Buffer (For OR2 screening, 2.5 μL of 1:100 natural product sample in DiscoverX cell plating reagent.
as §1

[4] = system: male Sprague-Dawley rat; assay: in vivo tolerability, dose escalation, adverse effect observation; conditions: for 15 min effects (adverse effects) / 30 min effects (adverse effects) / 60 min effects (adverse effects): n=3 rats, (x/3) animals affected
Procedure: In this example, the in vivo tolerability of Compounds 26, 21, 29, and 13 was assessed.
Naïve rats (male Sprague-Dawley rat) were acclimatized to the procedure room in their home cages up to 7 days following arrival to the test facility, with food and water available ad libitum. On the day of experiment, animals were acclimatized to the experimental room for at least one hour prior to the beginning of any experiment. All animals were tail marked, weighed and randomly assigned to treatment groups. The animals (n=3 per dose) were treated with either Compounds 26, 21, 29, and 13 (10 mL/kg, p.o.). For each compound a maximum of 4 doses were tested using a dose escalation procedure starting from 30 mg/kg. If this initial dose is well-tolerated, the dosage is increased to 100 mg/kg. If the 30 mg/kg dose is not tolerated, the dose is reduced to 15 mg/kg. Following the dose escalation procedure, if the 100 mg/kg dose is well-tolerated, the dose is escalated to 315 mg/kg. If it is not tolerated, the dose is decreased to 60 mg/kg. The pattern continues with the next decision point: if 315 mg/kg is well-tolerated, the dose is increased to the maximum of 500 mg/kg. If 315 mg/kg is not tolerated, the dose is decreased to 200 mg/kg.
The compounds would be considered not tolerated if three or more adverse effects (or any severe adverse effect) occurred at specific dose during the entire period of 60 mins. […] Mild—slight decrease in activity, responsive when provoked. Moderate—decrease in activity, less responsive when provoked.

Structure (SMILES) | % Agonism Orx2 at Relative IC50 [2] [%] | IC50 [2] [µM] | % Agonism on Orx1 at OR2 IC50 [3] [%] | % Cell viability at IC50 [1] [%] | other results
CC1O[C@@H](OC2C(O)[C@H](Oc3c(-c4ccc(O)cc4)oc4cc(O)cc(O)c4c3=O)OC(CO)[C@H]2O)[C@@H](O)C(O)[C@H]1O (stereo partly drawn) [Compound 24, 3-[(2S,5R)-3,5-dihydroxy-6-(hydroxymethyl)-4-[(2S,3S,5R)-3,4,5-trihydroxy-6-methyloxan-2-yl]oxyoxan-2-yl]oxy-5,7-dihydroxy-2-(4-hydroxyphenyl)chromen-4-one] | 45 | 191 | 48.83 | 96.12 | –
C[C@@H]1O[C@@H](O[C@H]2[C@H](Oc3c(-c4ccc(O)cc4)oc4cc(O)cc(O)c4c3=O)O[C@H](CO)[C@@H](O)[C@@H]2O)[C@H](O)[C@H](O)[C@H]1O [Compound 23, 3-[(2S,3R,4S,5S,6R)-4,5-dihydroxy-6-(hydroxymethyl)-3-[(2S,3R,4R,5R,6S)-3,4,5-trihydroxy-6-methyloxan-2-yl]oxyoxan-2-yl]oxy-5,7-dihydroxy-2-(4-hydroxyphenyl)chromen-4-one] | 50 | 174 | 104.1268 | 107.68 | –
O=c1c(O)c(-c2ccc(O)c(O)c2)oc2cc(O)cc(O)c12 [Compound 29, 2-(3,4-dihydroxyphenyl)-3,5,7-trihydroxychromen-4-one] | – | – | – | – | 15 min effects (adverse effects) ([4]; 30 mg/kg p.o.): No adverse effects; 30 min effects (adverse effects) ([4]; 30 mg/kg p.o.): No adverse effects; 60 min effects (adverse effects) ([4]; 30 mg/kg p.o.): No adverse effects; 15 min effects (adverse effects) ([4]; 100 mg/kg p.o.): Reduced activity; 30 min effects (adverse effects) ([4]; 100 mg/kg p.o.): No adverse effects; 60 min effects (adverse effects) ([4]; 100 mg/kg p.o.): No adverse effects; 15 min effects (adverse effects) ([4]; 315 mg/kg p.o.): Reduced activity; 30 min effects (adverse effects) ([4]; 315 mg/kg p.o.): Reduced activity; also recorded: Pica (2/3); 60 min effects (adverse effects) ([4]; 315 mg/kg p.o.): Reduced activity (3/3); 15 min effects (adverse effects) ([4]; 500 mg/kg p.o.): Pica (1/3); 30 min effects (adverse effects) ([4]; 500 mg/kg p.o.): Pica (2/3); 60 min effects (adverse effects) ([4]; 500 mg/kg p.o.): No adverse effects; tolerability ([4]; all four doses (30, 100, 315 and 500 mg/kg) p.o., 60 min observation): well-tolerated
O=C(CCc1ccc(O)cc1)c1ccc(OC2OC(CO)C(O)C(O)C2O)cc1O (centres unmarked) [Compound 19, 3-(4-hydroxyphenyl)-1-[2-hydroxy-4-[3,4,5-trihydroxy-6-(hydroxymethyl)oxan-2-yl]oxyphenyl]propan-1-one] | 80 | 319 | 68.74 | 86.12 | IC50 Dilution of Orx2 (fold dilution) [2]: 5786.9 fold dilution

Continued, in another order:

% Agonism Orx2 at Relative IC50 [2] [%] | IC50 [2] [µM] | % Agonism on Orx1 at OR2 IC50 [3] [%] | Structure (SMILES) | % Cell viability at IC50 [1] [%] | other results
50 | 81.3 | 26.23 | Cc1cc(O)c2c(c1)C(=O)c1cc(O)cc(O[C@@H]3O[C@H](CO)[C@@H](O)[C@H](O)[C@H]3O)c1C2=O [Compound 30, 1,6-dihydroxy-3-methyl-8-[(2S,3R,4S,5S,6R)-3,4,5-trihydroxy-6-(hydroxymethyl)oxan-2-yl]oxyanthracene-9,10-dione] | 100 | –
50 | 154 | 75.74 | COc1c(O)cc2oc(-c3ccc(O[C@@H]4O[C@H](C(=O)O)[C@@H](O)[C@H](O)[C@H]4O)c(O)c3)c(OC)c(=O)c2c1O [Compound 28, (2S,3S,4S,5R,6S)-6-[4-(5,7-dihydroxy-3,6-dimethoxy-4-oxochromen-2-yl)-2-hydroxyphenoxy]-3,4,5-trihydroxyoxane-2-carboxylic acid] | 107.58 | –
65 | 53.3 | 64.4 | O=c1c(O)c(-c2ccc(O)cc2)oc2cc(O)cc(O)c12 [Compound 12, 3,5,7-trihydroxy-2-(4-hydroxyphenyl)chromen-4-one] | 80.39 | IC50 Dilution of Orx2 (fold dilution) [2]: 7039.1 fold dilution
45 | 154 | 56.18 | O=c1c(O[C@@H]2O[C@@H](CO)[C@H](O)[C@H]2O)c(-c2ccc(O)cc2)oc2cc(O)cc(O)c12 [Compound 27, 3-[(2S,3R,4R,5S)-3,4-dihydroxy-5-(hydroxymethyl)oxolan-2-yl]oxy-5,7-dihydroxy-2-(4-hydroxyphenyl)chromen-4-one] | 101.69 | –
50 | 148 | 103.7053 | COc1cc(-c2oc3c(OC)c(O[C@@H]4O[C@H](COC(C)=O)[C@@H](O)[C@H](O)[C@H]4O[C@@H]4O[C@@H](C)[C@H](O)[C@@H](O)[C@H]4O)cc(O)c3c(=O)c2O)ccc1O [Compound 25, [(2R,3S,4S,5R,6S)-6-[3,5-dihydroxy-2-(4-hydroxy-3-methoxyphenyl)-8-methoxy-4-oxochromen-7-yl]oxy-3,4-dihydroxy-5-[(2S,3R,4R,5R,6S)-3,4,5-trihydroxy-6-methyloxan-2-yl]oxyoxan-2-yl]methyl acetate] | 91.68 | –
45 | 146 | – | O=C(O)[C@H]1O[C@@H](Oc2c(-c3ccc(O)cc3)oc3cc(O)cc(O)c3c2=O)[C@H](O)[C@@H](O)[C@@H]1O [Compound 20, (2S,3S,4S,5R,6S)-6-[5,7-dihydroxy-2-(4-hydroxyphenyl)-4-oxochromen-3-yl]oxy-3,4,5-trihydroxyoxane-2-carboxylic acid] | 83.58 | –
